Test system: NO production in LPS-stimulated RAW 264.7 macrophage cells
Assay: Inhibition of nitric oxide (NO) production in LPS-stimulated murine macrophages (RAW 264.7), Griess reagent
Format: cell-based
Conditions: 3 h pre-treatment, then 5 ng/ml LPS overnight; FO 15 μM, DIM 15 μM, BC-concentrated TQ 10 μM; FIG. 3
Method: These two different BC preparations were then tested for their ability to inhibit NO production, in accordance with the method described hereinbelow in Example 4.
BC-concentrated TQ (obtained from TriNutra. Ness Ziona, Israel), Omega-3 oil (fish oil—FO) and Diindolylmethane (DIM) were tested on a macrophage murine cellular system (RAW 264.7) before stimulation with Lipopolysaccharide (LPS), an endotoxin which induces a strong response from normal animal immune systems.
Cells were thawed, grown and managed according to standard protocols.
On Day 0, cells were seeded in 6-well plates at concentrations of 6×10^5. Volume of medium per well was 2 ml. Cells were seeded in triplicates for each treatment and for each control.
Culture Medium • 10% FCS, 1% Penicillin-Streptomycin Solution, 2% Glutamine 2% were added to DMEM (final volume −500 ml) and filtered. Medium was kept at 2-8° C. until use.
10 mg LPS was dissolved in 10 ml sterile water aliquoted and kept at −20° C.
Before use 1 aliquot was defrosted and diluted in culture media to final concentration of 5 ng/ml.
MW of Fish oil 300 g/mol.
Test items were dissolved in 100% ethanol to form 100 mM concentration.
Further dilutions were made in culture medium. 10% of test item in concentration×10 was added to each well according to study plan.
Stock solution (100 mM) was prepared in 100% DMSO. […]

## c1ccc2c(Cc3c[nH]c4ccccc34)c[nH]c2c1 [DIM, 3,3′-Diindolylmethane]
  inhibition of NO production when tested separately: caused inhibition of NO production
